Reference: patent publication US20260174786A1, “A NITROGEN-CONTAINING SPIROCYCLIC COMPOUND, PHARMACEUTICAL COMPOSITION AND USE THEREOF” (Prime Gene Therapeutics Co., Ltd., priority 2022, published 2026)

Legend:
[1] = Balanced dialysis plasma protein binding test (rat); assay type: in vitro ADME
Experimental: (§1) 1. Immersing a dialysis membrane (water: 60 minutes, 20% ethanol: 20 minutes, dialysis buffer: 20 minutes). 2. Diluting the test compound in dimethyl sulfoxide (working solution) to 200 μM. 3. Thawing the plasma in a 37° C. water bath and centrifuge the plasma at 3220 g for 10 minutes to remove blood clots. 4. Transferring the supernatant to a new tube and preheating it in a 37° C. water bath for 10 minutes. 5. Assembling HTD dialysis equipment according to the manufacturer's guidelines. 6. Adding 3 μL of 200 μM test compound to 597 μL of plasma and rotating at 1000 rpm for 2 minutes. 7. Transferring 50 μL of spiked plasma to a 96 well plate, then adding 50 μL of dialysis buffer and 200 μL of methanol, using IS * as the T0 sample. 8. Adding 120 μL of spiked plasma and 120 μL of dialysis buffer in duplicate into the chamber of the HTD dialysis device. 9. Covering the dialysis equipment with a breathable cover and incubating the dialysis equipment and the remaining spiked plasma at 37° C. (100 rpm, 5% CO2) for 6 hours. 10. Transferring 50 μL of dialyzed sample from the dialysis buffer and the plasma chamber to a separate 96 well plate, then adding 50 μL of blank plasma or dialysis buffer and 200 μL of methanol, with IS * as the B and P samples. 11. Transferring 50 μL of remaining spiked plasma (as described in step 9) to a 96 well plate, then adding 50 μL of dialysis buffer and 200 μL of methanol, with IS * as the T6 sample. 12. Centrifuging the sample plate at 3220 g for 40 minutes. 13. Transferring 100 μL of supernatant onto an analytical plate containing an appropriate volume of water for LC-MS/MS. 14. Data analysis.

[2] = Balanced dialysis plasma protein binding test (human); assay type: in vitro ADME
Experimental: as §1

[3] = biological target: hTRPV1 (Homo sapiens, UniProt Q8NER1); test: Inhibition rate on different hTRPs: hTRPV1; assay type: cell-based
[4] = biological target: hTRPA1 (Homo sapiens, UniProt O75762); test: Inhibition rate on different hTRPs: hTRPA1; assay type: cell-based
[5] = Permeability experiment of Caco-2 cells; assay type: in vitro ADME; conditions: human, pH 7.4, Caco-2, 5 μM
Experimental: (§2) 1. Transwell plate preheating: before laying cells, adding 100 μL of culture medium to the upper layer of Transwell plate and 600 μL of culture medium to the lower layer of Transwell plate, Pre-incubating at 37° C. under 5% CO2 for 1 hour. 2. Treating Caco-2 cells by adding 100 μL of cell suspension (4×10^5 cells/mL) to each well, and cultivating in a 37° C., 5% CO2 incubator for 14-21 days. 3. Changing the cell culture medium every other day within 7 days, and changing it daily after 7 days. 4. Using EVOM3 to measure single-layer epithelial to epithelial resistance (TEER).
(§3) 1. Preheating HBSS (10 mM HEPES, pH 7.4) buffer, cleaning the upper and lower layers of Transwell plates twice each, and incubating at 37° C. for 30 minutes. 2. Working solution: Diluting the test compound HBSS buffer with 1 mM DMSO to 5 μM. 3. A-B direction: Adding 200 μL of 5 μM working solution to the upper layer and 600 μL of HBSS buffer solution to the lower layer; 4. B-A direction: Adding 600 μL of 5 μM working solution to the lower layer and 200 μL of HBSS buffer to the upper layer, and incubating for 2 hours. 5. C0 sample: Taking 100 μL of working solution to a sample plate containing 400 μL of methanol (internal standard). 6. After incubation for 2 hours, taking 100 μL from the upper and lower layers of the chamber to the sample plates containing 400 μL of methanol (internal standard). 7. Mixing and centrifuging, mixing the supernatant with a certain amount of water, and using the sample for LC-MS/MS data analysis. 8. After completing step 6, adding 200 μL of 100 μM fluorescent yellow solution to the upper chamber and 600 μL of HBSS buffer salt solution to the lower chamber. Incubating at 37° C. and 5% CO2 for 30 minutes, and taking out 50 μL of each into a black plate to read the fluorescence value. 9. Data analysis.

[6] = tested on: Caco-2 cells; test: Permeability experiment of Caco-2 cells; assay type: in vitro ADME; conditions: Caco-2, 5 μM
Experimental: as §2, §3

[7] = Stability assessment of compounds at room temperature under 92.5% humidity (LC-MS); assay type: physicochemical; conditions: 92.5% humidity
Experimental: Taking the compound of Example 21 and KM-001-E1 in WO2021154966A1 as examples, the stability thereof was compared:
Compound of Example 21 and KM-001-E1 were accurately weighed and placed in penicillin bottles, and placed at room temperature under 92.5% humidity (open) conditions for 5-10 days to investigate the stability of the compounds.
• instrument: Thermo U3000-ISQEC • column: Xtimate UHPLC C18 1.8 μm 4.6*50 mm • Column temperature: 35° C. • wavelength: 210 nm, 254 nm • mobile phase A: 0.05% formic acid aqueous solution; mobile phase B: 0.05% formic acid acetonitrile; gradient: 30% B 0-1.2 min, 95% B 1.2-3.3 min, 30% B 3.3-4.5 min;
Analyzing the degradation impurities of each compound under 92.5% humidity conditions using LC-MS: The main impurities in Example 21 had m/z 427.17, with a retention time of 2.55 minutes. After being left for 10 days, the peak area proportion was only 0.3%; The main impurities in KM-001-E1 has m/z=431.14 and m/z=415.16, with retention times of 2.31 minutes and 2.64 minutes, respectively. […] Based on LC-MS and NMR data analysis, it can be inferred that the main impurities produced in Example 21 are ketones, while the main impurities produced in KM-001-E1 are aldehydes and carboxylic acids.

hTRPA1, sequence (O75762 whole entry): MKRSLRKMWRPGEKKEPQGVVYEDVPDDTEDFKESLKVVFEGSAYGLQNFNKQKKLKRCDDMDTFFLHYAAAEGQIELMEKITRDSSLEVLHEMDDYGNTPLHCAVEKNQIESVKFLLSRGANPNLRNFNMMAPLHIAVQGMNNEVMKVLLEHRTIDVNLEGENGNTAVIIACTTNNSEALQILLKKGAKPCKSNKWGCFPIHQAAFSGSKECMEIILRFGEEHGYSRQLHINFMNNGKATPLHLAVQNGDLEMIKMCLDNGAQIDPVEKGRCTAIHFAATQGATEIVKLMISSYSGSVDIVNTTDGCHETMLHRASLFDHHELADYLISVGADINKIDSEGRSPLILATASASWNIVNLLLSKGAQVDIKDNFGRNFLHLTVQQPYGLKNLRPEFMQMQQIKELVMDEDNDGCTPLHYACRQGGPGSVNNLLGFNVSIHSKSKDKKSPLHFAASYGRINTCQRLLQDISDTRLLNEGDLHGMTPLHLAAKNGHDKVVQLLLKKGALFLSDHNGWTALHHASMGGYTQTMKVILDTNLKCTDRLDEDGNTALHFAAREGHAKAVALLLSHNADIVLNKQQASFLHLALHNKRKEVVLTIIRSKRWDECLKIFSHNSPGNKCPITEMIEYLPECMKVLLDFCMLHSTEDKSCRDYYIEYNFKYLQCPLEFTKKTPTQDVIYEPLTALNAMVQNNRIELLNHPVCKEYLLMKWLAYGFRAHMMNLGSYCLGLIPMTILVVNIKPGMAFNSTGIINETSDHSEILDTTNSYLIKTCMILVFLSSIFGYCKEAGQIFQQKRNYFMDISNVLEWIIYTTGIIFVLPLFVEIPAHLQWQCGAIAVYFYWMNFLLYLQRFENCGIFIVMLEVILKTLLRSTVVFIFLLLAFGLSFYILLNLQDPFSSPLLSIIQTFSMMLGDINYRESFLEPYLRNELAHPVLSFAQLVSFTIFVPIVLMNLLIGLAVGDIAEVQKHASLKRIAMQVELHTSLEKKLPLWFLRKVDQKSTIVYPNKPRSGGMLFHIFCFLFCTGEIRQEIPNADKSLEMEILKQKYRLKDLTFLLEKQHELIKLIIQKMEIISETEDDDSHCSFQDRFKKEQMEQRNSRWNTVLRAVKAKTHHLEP
hTRPV1, sequence (Q8NER1 whole entry): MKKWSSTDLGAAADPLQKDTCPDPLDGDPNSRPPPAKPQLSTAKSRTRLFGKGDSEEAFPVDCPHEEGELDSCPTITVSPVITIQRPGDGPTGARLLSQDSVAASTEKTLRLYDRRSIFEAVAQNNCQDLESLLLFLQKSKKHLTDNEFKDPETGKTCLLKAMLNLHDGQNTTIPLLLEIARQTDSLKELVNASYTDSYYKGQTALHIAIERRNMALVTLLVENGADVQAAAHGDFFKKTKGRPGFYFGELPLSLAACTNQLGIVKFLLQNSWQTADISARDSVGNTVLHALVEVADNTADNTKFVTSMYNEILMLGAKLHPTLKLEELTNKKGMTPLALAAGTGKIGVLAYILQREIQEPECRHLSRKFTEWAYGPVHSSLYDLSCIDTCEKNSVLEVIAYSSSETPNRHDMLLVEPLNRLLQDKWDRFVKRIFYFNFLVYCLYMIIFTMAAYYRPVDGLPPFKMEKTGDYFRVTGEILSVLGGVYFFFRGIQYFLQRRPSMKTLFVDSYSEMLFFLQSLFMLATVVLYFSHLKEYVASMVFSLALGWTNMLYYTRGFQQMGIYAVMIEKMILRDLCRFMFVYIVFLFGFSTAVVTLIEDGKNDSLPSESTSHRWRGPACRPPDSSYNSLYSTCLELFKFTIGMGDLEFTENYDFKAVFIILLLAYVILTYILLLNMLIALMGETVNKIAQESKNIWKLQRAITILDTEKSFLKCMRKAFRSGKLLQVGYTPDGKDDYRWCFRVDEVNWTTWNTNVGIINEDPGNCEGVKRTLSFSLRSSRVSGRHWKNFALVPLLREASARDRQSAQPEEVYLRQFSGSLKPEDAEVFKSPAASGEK

O=C(c1ccc(F)cn1)N1CCC2(CC(O)c3cc(-c4ccccc4C4CC4)ccc32)C1 (stereo not drawn) [Example 15, (5-(2-cyclopropylphenyl)-3-hydroxy-2,3-dihydrospiro[indene-1,3′-pyrrolidine]-1′-yl)(5-fluoropyridin-2-yl) ketone]
recover % [1]: 92.94% | remaining % ([1]; 6 hours): 102.46% | binding % ([1]; 6 hours dialysis): 99.78% | dissociated % ([1]; 6 hours dialysis): 0.22% | recover % [2]: 87.63% | remaining % ([2]; 6 hours): 97.37% | binding % ([2]; 6 hours dialysis): 99.58% | dissociated % ([2]; 6 hours dialysis): 0.42%

O=C(c1ccc(F)cn1)N1CC[C@@]2(C[C@@H](O)c3cc(-c4ccccc4C4CC4)ccc32)C1 [Example 21, ((1S,3R)-5-(2-cyclopropylphenyl)-3-hydroxy-2,3-dihydrospiro[indene-1,3′-pyrrolidine]-1′-yl)(5-fluoropyridin-2-yl)ketone]
inhibition at 0.3 µM ([3]; hTRPV1, 0.3 μM): 5.62% | Selectivity ratio ([3]; inhibition rate on TRPV3 / inhibition rate on hTRPV1, 0.3 μM): 16.0X | inhibition at 0.3 µM ([4]; hTRPA1, 0.3 μM): 10.7% | Selectivity ratio ([4]; inhibition rate on TRPV3 / inhibition rate on hTRPA1, 0.3 μM): 8.4X | Papp A→B at 2 h, 5 μM ([5]; 2 hours): 20.9 ×10⁻⁶ cm/s | Papp B→A at 2 h, 5 μM ([5]; 2 hours): 9.58 ×10⁻⁶ cm/s | efflux ratio at 2 h, 5 μM ([5]; read-out: External ratio): 0.46 | Recover A→B % [6]: 49.40% | Recover B→A % [6]: 68.20% | stability compared with KM-001-E1 / compounds of WO2021154966A1 [7]: better chemical stability than the primary alcohol compound in WO2021154966A1
